Assay results as given in US20240167030A1, “METHODS AND COMPOSITIONS FOR ACCELERATING OLIGODENDROCYTE MATURATION” (Case Western Reserve University, priority 2021, published 2024).

Columns and labels:
Type in all cases: cell-based, mouse
oligodendrocytes = assay: RNA-seq gene set enrichment analysis (GSEA) of SOX6 knockout oligodendrocytes; conditions: SOX6 knockout vs control (sgNTC) oligodendrocytes, day 3 of differentiation
Excerpt: (§1) Generation of mouse CRISPR KO OPCs: CRISPR knockout (KO) OPCs were created following a similar protocol used previously (Allan et al., 2020; Tripathi et al., 2019). In brief, guides were selected from the Brie library (Doench et al., 2016), cloned into the linearized CRISPRv2 backbone (Addgene 52961) (Sanjana et al., 2014), and sequence verified by sanger sequencing. HEK293T cells (Clonetech) were than transfected using lenti-X shots (manufacturer's protocol, Clonetech). Transfection media was replaced with N2B27 base media the following day. Lentivirus containing N2B27 was then collected after an additional 2 days, filtered, and supplemented with OPC growth factors PDGFA and FGF2 and added to OPCs at a ratio of 1:2 viral media to OPC growth media. The viral media was switched out for virus-free OPC growth the next day and allowed to recover for an additional 2 days. At this point, infected OPCs were selected for 96 hours in OPC growth media supplemented with a lethal dose of puromcyin (500 ng/mL). OPCs were allowed to recover in selection free media for at least 24 hours prior to being aliquoted and frozen down. For all experiments, infected CRISPR KO and non-targeting control OPCs were derived from the same original batch of EpiSC-derived mouse OPCs. qPCR was performed to validate a reduction of gene targets for each batch of CRISPR KO OPCs generated.
Bulk RNA-seq sample preparation and alignment: OPCs were lysed in TRIzol and RNA was isolated as described for qPCR. Purified RNA was then submitted to Novogene for library preparation and sequencing on the Illumina NovaSeq (150 bp paired end). For gene expression analysis, reads were aligned to the mm10 genome and quantified in transcripts per million (TPM) values using salmon 0.14.1 (github dot com slash COMBINE-lab slash salmon). Transcripts were summarized as gene-level TPM abundances with tximport. A gene with TPM>1 was considered expressed. Differential expression analysis was performed using DESEQ2 (bioconductor.org slash packages slash release slash bioc slash html slash DESeq2 dot html). Significant genes were called based on p-adj and fold change values as described in the results section.
RNA-seq was then performed on SOX6 knockout OPCs and differentiating oligodendrocyte cultures compared to non-targeting controls (FIGS. 10B and 11A). In agreement with binding at nearly all super-enhancers in OPCs, Sox6 knockout OPCs harbored a reduction in OPC signature genes and transcription factors such as Cspg4 and Sox10 (FIGS. 11A-11C). In differentiating oligodendrocytes, loss of SOX6 led to a reduction in Sox6 condensate gene expression (FIGS. 10B, 10C, and 11D). In agreement with these condensate genes stabilizing genes transiently expressed by intermediate oligodendrocytes, SOX6 knockout oligodendrocytes harbored a significant reduction in intermediate oligodendrocyte gene expression (FIGS. 10D and 11E).

SOX6 = assay: Western blot of SOX6 in CRISPR-Cas9 knockout OPCs; conditions: knockout OPCs compared to non-targeting control (sgNTC)
Excerpt: as §1, with “At this point, infected OPCs were selected for 96 hours in OPC growth media supplemented with a lethal dose of puromcyin (500 ng/mL). OPCs were allowed to recover in selection free media for at least 24 hours prior to being aliquoted and frozen down. For all experiments, infected CRISPR KO and non-targeting control OPCs were derived from the same original batch of EpiSC-derived mouse OPCs. qPCR was performed to validate a reduction of gene targets for each batch of CRISPR KO OPCs generated.” left out
Western blot: For cell culture derived protein samples, at least 1 million OPCs were collected and lysed in RIPA buffer (Sigma) supplemented with protease and phosphatase inhibitor (78441, Thermo Fisher) for at least 15 minutes and cleared by centrifugation at 13,000 g at 4° C. for 15 minutes. Protein concentrations were determined using the Bradford assay (Bio-Rad Laboratories). […] Membranes were then imaged and analyzed using Image Studio™ software. […]

[1] = system: SOX6 biomolecular condensates; assay: confocal immunofluorescence coupled with RNA-FISH of Sox6 condensates in intermediate oligodendrocytes; conditions: upon addition of the drug
Excerpt: Given the massive density of SOX6, an inherently disordered protein, at super-enhancer associated genes that increase sharply in intermediate oligodendrocytes and then decrease in myelinating oligodendrocytes, it was hypothesized that these regions represent SOX6 biomolecular condensates that stabilize, not inhibit, the intermediate oligodendrocyte state (FIGS. 8F and 8G) (Daneshvar et al., 2020; Henninger et al., 2020; Hnisz et al., 2017; Sabari et al., 2018). Performing high resolution confocal microscopy of immunofluorescence coupled with RNA-FISH confirmed Sox6 puncta in intermediate oligodendrocytes that co-localized with the predicted Sox6 aggregate gene Bcas1, whereas this co-localization was severely diminished at the non-aggregate gene Gapdh.

Compound	GSEA of SOX6 aggregate (condensate) genes (oligodendrocytes)	GSEA of in vivo OPC signature genes (oligodendrocytes)	GSEA of in vivo intermediate oligodendrocyte signature genes (oligodendrocytes)	GSEA of in vivo myelinating oligodendrocyte signature genes (oligodendrocytes)	SOX6 expression (SOX6)	effect on Sox6 biomolecular condensates [1]
sgSox6 g2: single guide RNA for CRISPR-Cas9 SOX6 knockout, sequence AGAACACGCTTTGAGAACCT (listed as DNA, chemistry not given here)	significant depletion	significant depletion	significant depletion	enrichment	strong reduction	
Cc1sc2c(c1C)C(c1ccc(Cl)cc1)=N[C@@H](CC(=O)OC(C)(C)C)c1nnc(C)n1-2 [JQ1]						dissolved
sgSox6 g1: single guide RNA for CRISPR-Cas9 SOX6 knockout, sequence TTGACGGAATGAACTGTACG (listed as DNA, chemistry not given here)	significant depletion	significant depletion	significant depletion	enrichment	strong reduction	
